Results reported in patent US4387087A, “Cationic lipophilic complexes of ^99m Tc and their use for myocardial and hepatobiliary imaging” (priority 1980, dated 1983).
“And” between values parts separate entries of the source, which are not always exact repeats. Equal entries are not always repeated.

Columns and labels:
Type in all cases: in vivo
[1] = Myocardial imaging in a normal mongrel dog (Examples 4 and 5)
Protocol: For example, time dependent scintiscans of the chest region of a patient can be used. A computer interface, 16 crystal, Ohio Nuclear Spectrometer, is used for these scans and about 5 mCi of a given radiopharmaceutical is injected; blood samples are concurrently collected via an indwelling intravenous catheter in order to determine blood clearance rates. Time dependent tissue distribution studies are then conducted.

[2] = Tissue distribution studies using normal female Sprague-Dawley rats (Table 1)
[3] = Hepatobiliary imaging in a mongrel dog (Example 6, FIGS. 1 and 2)
Protocol: FIG. 2 is a schematic describing the photograph of FIG. 1. Both the photograph and accompanying schematic were taken after the complex had cleared the blood (5 minutes after injection), entered the liver and started clearing the liver and entering the gallbladder (10 minutes after injection).
The title complex was injected in the same vehicle as in Example 4 into a mongrel dog and images were obtained by positioning a camera directly over the chest of the dog.

[4] = Time dependent myocardial and gallbladder distributions, computer analysis of scintigraphic data (Example 7, FIG. 3); conditions: dog
Protocol: FIG. 3 compares the gallbladder uptake and heart clearing of 99m-Tc (diars)2 Cl2^+ with that of 99m-Tc (diars)2 Br2^+.
(§1) The two title complexes were injected into a dog as described for the complex of Example 4. […] These differences are graphically illustrated in FIG. 3, wherein are plotted time dependent myocardial and gallbladder distributions obtained by computer analysis of scintigraphic data; data for a given complex are normalized, but comparative data between complexes are not.

[5] = Blood clearance curves (Example 7, FIG. 4); conditions: dog
Source text: It is clear that these two chemically similar agents are somewhat differentiated in the biological system.
Imaging of the myocardium or the hepatobiliary system can then be carried out (after waiting for appropriate periods of time to permit blood clearance of the radiopharmaceutical), by standard scanning techniques (Andres, J. T. et al., "Nuclear Medicine", Wiley & Sons, N.Y., 1977; "Basic Science Principles of Nuclear Medicine", Boyd, C. M. and Dalrymple, G. V., eds., Morby, St. Louis, 1974). For example, time dependent scintiscans of the chest region of a patient can be used. A computer interface, 16 crystal, Ohio Nuclear Spectrometer, is used for these scans and about 5 mCi of a given radiopharmaceutical is injected; blood samples are concurrently collected via an indwelling intravenous catheter in order to determine blood clearance rates. Time dependent tissue distribution studies are then conducted.
as §1

Q: For `C[P+]1(C)CC[P+](C)(C)[99Tc-3]12([Br])([Br])[P+](C)(C)CC[P+]2(C)C` [[99m-Tc(DMPE)2 Br2]^+, [99m-Tc(DMPE)2 Br2]Br], which “Myocardial uptake by the heart” value ([1]; same conditions as Example 4) is on record?
A: Its value is “Myocardial uptake by the heart of a normal mongrel dog was observed”.

Q: With “trans-[Tc-99m(diars)2 Br2 ]Br [trans-[Tc(diars)2 Br2]Br]” as the molecule, how does the Blood ([2]; 10 min post dose) read?
A: The Blood was 0.38(3) % of the dose/g.

Q: What about the “Femur Muscle” value ([2]; 10 min post dose) of the same molecule?
A: The value was 0.22(6) % of the dose/g.

Q: And the Kidney ([2]; 10 min post dose)?
A: Its Kidney is 3.1(6) % of the dose/g.

Q: And the Liver ([2]; 10 min post dose)?
A: Its Liver is 4.5(6) % of the dose/g.

Q: What about the Pancreas ([2]; 10 min post dose) of the same molecule?
A: Its Pancreas is 1.0(3) % of the dose/g.

Q: What about the Heart ([2]; 10 min post dose, 10 min) of the same molecule?
A: Its Heart is 2.3(5) % of the dose/g and 2.3 % of the dose/g.

Q: And the Blood ([2]; 30 min post dose)?
A: The Blood was 0.27(3) % of the dose/g.

Q: And the “Femur Muscle” value ([2]; 30 min post dose)?
A: The value was 0.29(3) % of the dose/g.

Q: What about the Heart ([2]; 30 min post dose) of the same molecule?
A: The Heart was 1.8(1) % of the dose/g.

Q: And the Kidney ([2]; 30 min post dose)?
A: The Kidney was 2.3(1) % of the dose/g.

Q: What about the Liver ([2]; 30 min post dose) of the same molecule?
A: Its Liver is 2.9(6) % of the dose/g.

Q: And the Pancreas ([2]; 30 min post dose)?
A: Its Pancreas is 1.2(2) % of the dose/g.

Q: What about the Blood ([2]; 60 min post dose) of the same molecule?
A: The Blood was 0.21(1) % of the dose/g.

Q: What about the “Femur Muscle” value ([2]; 60 min post dose) of the same molecule?
A: The value was 0.26(5) % of the dose/g.

Q: And the Heart ([2]; 60 min post dose)?
A: Its Heart is 1.3(1) % of the dose/g.

Q: And the Kidney ([2]; 60 min post dose)?
A: Its Kidney is 2.1(1) % of the dose/g.

Q: What about the Liver ([2]; 60 min post dose) of the same molecule?
A: The Liver was 2.7(3) % of the dose/g.

Q: And the Pancreas ([2]; 60 min post dose)?
A: The Pancreas was 0.9(1) % of the dose/g.

Q: And the Blood ([2]; 120 min post dose)?
A: Its Blood is 0.18(3) % of the dose/g.

Q: What about the “Femur Muscle” value ([2]; 120 min post dose) of the same molecule?
A: Its value is 0.28(2) % of the dose/g.

Q: And the Heart ([2]; 120 min post dose)?
A: The Heart was 1.0(1) % of the dose/g.

Q: What about the Kidney ([2]; 120 min post dose) of the same molecule?
A: Its Kidney is 1.9(1) % of the dose/g.

Q: What about the Liver ([2]; 120 min post dose) of the same molecule?
A: Its Liver is 2.1(2) % of the dose/g.

Q: And the Pancreas ([2]; 120 min post dose)?
A: The Pancreas was 0.8(1) % of the dose/g.

Q: And the “removal of the bulk of the activity” value [1]?
A: Its value is “The bulk of the activity is taken out by the hepatobiliary system”.

Q: What about the “maximal myocardial uptake, time post injection” value ([1]; 50% ethanol/50% saline vehicle) of the same molecule?
A: The value was “about 20 minutes”.

Q: What about the “visualization of the myocardium” value ([1]; high sensitivity colimator) of the same molecule?
A: The value was “clearly visualizing the myocardium”.

Q: What about the “complex in the blood pool” value ([3]; 0 minutes, immediately after injection) of the same molecule?
A: Its value is “most of the complex is in the blood pool which is predominantly in the heart chambers”.

Q: And the “clearance from the blood” value ([3]; 1 minute after injection)?
A: The value was “begins to clear from the blood”.

Q: What about the gallbladder uptake ([3]; 1 minute after injection) of the same molecule?
A: Its gallbladder uptake is “The gallbladder does not yet contain any activity”.

Q: And the liver uptake ([3]; 1 minute after injection)?
A: Its liver uptake is “starts to enter the liver”.

Q: And the “clearance from the blood” value ([3]; 5 minutes)?
A: Its value is “The complex is all gone from the blood”.

Q: And the gallbladder uptake ([3]; 5 minutes)?
A: The gallbladder uptake was “A small amount has begun to enter the gallbladder”.

Q: And the heart image ([3]; 5 minutes)?
A: The heart image was “the heart image has disappeared”.

Q: What about the liver uptake ([3]; 5 minutes) of the same molecule?
A: The liver uptake was “most of it is in the liver”.

Q: What about the gallbladder uptake ([3]; 10 minutes) of the same molecule?
A: Its gallbladder uptake is “The gallbladder has taken up most of the complex and appears brighter than even the liver”.

Q: What about the gallbladder uptake ([3]; 20 minutes) of the same molecule?
A: The gallbladder uptake was “The gallbladder has taken up the bulk of the complex”.

Q: What about the liver activity ([3]; 20 minutes) of the same molecule?
A: The liver activity was “the liver contains relatively little activity”.

Q: What about the gallbladder uptake ([3]; 30 minutes, FIGS. 1 and 2) of the same molecule?
A: Its gallbladder uptake is “the gallbladder has taken up the bulk of the complex”.

Q: What about the liver activity ([3]; 30 minutes, FIGS. 1 and 2) of the same molecule?
A: Its liver activity is “the liver contains relatively little activity”.

Q: What about the “time after injection at which the complex had cleared the blood” value ([3]; FIGS. 1 and 2) of the same molecule?
A: The value was 5 min.

Q: What about the “time after injection at which the complex started clearing the liver and entering the gallbladder” value ([3]; FIGS. 1 and 2) of the same molecule?
A: The value was 10 min.

Q: And the “gallbladder handling of the two agents” value ([4]; FIG. 3)?
A: Its value is “the gallbladder handles these two agents differently”.

Q: And the “gallbladder uptake (rate)” value ([4]; intravenous)?
A: The value was “relatively slow”.

Q: And the “time post intravenous injection at which the myocardium is readily visualized” value ([4]; intravenous)?
A: Its value is 20 to 40 min.

Q: What about the “Blood clearance curves, comparison of the two complexes” value [5] of the same molecule?
A: Its value is “biologically differentiated”.
